Test results as given in patent publication US7799816B2, “Imidazolinylmethyl aryl sulfonamide” (Roche Palo Alto LLC, priority 2008, dated 2010).

Columns and labels:
[1] = target: T1, alpha-1A adrenoceptors (Homo sapiens, UniProt P35348); experiment: alpha-1A adrenoceptor partial agonist activity (intrinsic activity and pEC50); format: biochemical
T1 sequence (P35348 1-466): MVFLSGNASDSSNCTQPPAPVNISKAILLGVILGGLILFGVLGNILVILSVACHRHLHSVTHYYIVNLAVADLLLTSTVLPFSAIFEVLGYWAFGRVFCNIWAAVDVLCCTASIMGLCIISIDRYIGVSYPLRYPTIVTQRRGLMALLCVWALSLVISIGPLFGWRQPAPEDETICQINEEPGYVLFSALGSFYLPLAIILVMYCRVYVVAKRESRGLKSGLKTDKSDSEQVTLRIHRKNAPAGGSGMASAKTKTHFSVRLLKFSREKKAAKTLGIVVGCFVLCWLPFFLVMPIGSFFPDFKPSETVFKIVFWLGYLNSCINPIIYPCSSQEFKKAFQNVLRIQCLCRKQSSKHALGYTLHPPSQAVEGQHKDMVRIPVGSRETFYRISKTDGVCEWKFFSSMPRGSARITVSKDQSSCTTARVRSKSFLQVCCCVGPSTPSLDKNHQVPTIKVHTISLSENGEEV

[2] = tested on: Female Yucatan Micro-Swine; experiment: Conscious pig model (IUP, MAP, HR); format: in vivo
Procedure: In general, IUP is the intraurethral pressure and is measured as the 2 minute mean from the first peak of the urethral response (FIG. 1). MAP is the mean arterial blood pressure and is measured as the average blood pressure during the 2 minute section where IUP is measured. The durability is the slope of the IUP response in mmHg/min and is calculated immediately after the 2 minute IUP response for 5 minutes (2-7 minutes post the first peak) for the top 3 doses.
Conscious Pig Materials and Methods
Sling Training: Female Yucatan Micro-Swine were trained to stay in a sling for up to 4 hours. Swine were exposed to progressively longer sling durations per IACUC sling-training guideline.
Surgical Instrumentation: Female Yucatan Micro-swine were instrumented with a telemetry device with both pressure and ECG monitoring capabilities (Data Sciences International St Paul Minn.). In addition, a Bardport low profile titanium VAP was placed subcutaneously for blood sampling. All devices were implanted by the surgical veterinarian at Roche Palo Alto. Briefly, the telemetry probe body was placed subcutaneously in the cervical region. The intra-arterial pressure catheter was advanced via the superficial cervical artery into the subclavian artery for blood pressure measurement. The ECG leads were placed intra-muscularly: one in the intercostal muscle between the T8-T10 regions on the left side, and the other in the intercostal muscles between the T1-T3 regions on the right side. The VAP was placed subcutaneously in the neck region, with the catheter advanced into the jugular vein. […]
Experiment: After the swine was fully awake and stable (usually approximately 1 hour post wake up), baseline blood pressure, IUP, and heart rate parameters were determined. […]
Data Generating and Analysis Systems: Cardiovascular readings were generated by the TL11M3-D70-PCP (Data Sciences International, St. Paul, Minn.) telemetry device and associated hardware. […] IUP was monitored by a solid state catheter connected to a TA6000 Polygraph (Data Sciences International, St. Paul, Minn.). […]

- intrinsic activity, or efficacy, as a partial agonist ([1]; ideally between 0.35 to 0.60): 0.38
- EC50 ([1]; read-out: affinity, or pEC50 value (converted)): 0.2 µM
SMILES: CS(=O)(=O)Nc1cc(F)c(CC2=NCCN2)c(Br)c1Br [Formula I, N-[2,3-Dibromo-4-(4,5-dihydro-1H-imidazol-2-ylmethyl)-5-fluoro-phenyl]-methanesulfonamide]
- maximum arterial blood pressure effect [2]: low maximum arterial blood pressure effect
- selectivity for enhancement of intraurethral pressure (IUP) over blood pressure (MAP) [2]: selectivity for enhancement of intraurethral pressure (IUP) over blood pressure (MAP)
- durability of IUP response over time ([2]; iv infusion, compared to analogue compound (FIG. 1b vs FIG. 1c)): unexpectedly increased durability of IUP response over time
